According to patent US11427558B1, “Indazoles and azaindazoles as LRRK2 inhibitors” (ESCAPE Bio, Inc., priority 2019, dated 2022):

What was measured:
[1] = molecular target: Recombinant G2019S-LRRK2 protein (Homo sapiens (Human), UniProt Q5S007, G2019S); test: LRRK2 kinase activity, LanthaScreen TR-FRET assay (G2019S); type: biochemical; details: LRRKtide 400 nM, 25 μM ATP, 60 min
How it was run: (§1)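 Recombinant human wild-type or G2019S LRRK2 phosphorylated fluorescein-labelled LRRKtide (ERM-based) with ATP and serially diluted compound for 60 min at room temperature.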

[2] = molecular target: Recombinant wild type LRRK2 protein (Homo sapiens (Human), UniProt Q5S007); test: LRRK2 kinase activity, LanthaScreen TR-FRET assay (wild type); type: biochemical; details: LRRKtide 400 nM, 25 μM ATP, 60 min; read-out: LRRK2 WT IC50
How it was run: as §1

Recombinant G2019S-LRRK2 protein, sequence (Q5S007 whole entry G2019S): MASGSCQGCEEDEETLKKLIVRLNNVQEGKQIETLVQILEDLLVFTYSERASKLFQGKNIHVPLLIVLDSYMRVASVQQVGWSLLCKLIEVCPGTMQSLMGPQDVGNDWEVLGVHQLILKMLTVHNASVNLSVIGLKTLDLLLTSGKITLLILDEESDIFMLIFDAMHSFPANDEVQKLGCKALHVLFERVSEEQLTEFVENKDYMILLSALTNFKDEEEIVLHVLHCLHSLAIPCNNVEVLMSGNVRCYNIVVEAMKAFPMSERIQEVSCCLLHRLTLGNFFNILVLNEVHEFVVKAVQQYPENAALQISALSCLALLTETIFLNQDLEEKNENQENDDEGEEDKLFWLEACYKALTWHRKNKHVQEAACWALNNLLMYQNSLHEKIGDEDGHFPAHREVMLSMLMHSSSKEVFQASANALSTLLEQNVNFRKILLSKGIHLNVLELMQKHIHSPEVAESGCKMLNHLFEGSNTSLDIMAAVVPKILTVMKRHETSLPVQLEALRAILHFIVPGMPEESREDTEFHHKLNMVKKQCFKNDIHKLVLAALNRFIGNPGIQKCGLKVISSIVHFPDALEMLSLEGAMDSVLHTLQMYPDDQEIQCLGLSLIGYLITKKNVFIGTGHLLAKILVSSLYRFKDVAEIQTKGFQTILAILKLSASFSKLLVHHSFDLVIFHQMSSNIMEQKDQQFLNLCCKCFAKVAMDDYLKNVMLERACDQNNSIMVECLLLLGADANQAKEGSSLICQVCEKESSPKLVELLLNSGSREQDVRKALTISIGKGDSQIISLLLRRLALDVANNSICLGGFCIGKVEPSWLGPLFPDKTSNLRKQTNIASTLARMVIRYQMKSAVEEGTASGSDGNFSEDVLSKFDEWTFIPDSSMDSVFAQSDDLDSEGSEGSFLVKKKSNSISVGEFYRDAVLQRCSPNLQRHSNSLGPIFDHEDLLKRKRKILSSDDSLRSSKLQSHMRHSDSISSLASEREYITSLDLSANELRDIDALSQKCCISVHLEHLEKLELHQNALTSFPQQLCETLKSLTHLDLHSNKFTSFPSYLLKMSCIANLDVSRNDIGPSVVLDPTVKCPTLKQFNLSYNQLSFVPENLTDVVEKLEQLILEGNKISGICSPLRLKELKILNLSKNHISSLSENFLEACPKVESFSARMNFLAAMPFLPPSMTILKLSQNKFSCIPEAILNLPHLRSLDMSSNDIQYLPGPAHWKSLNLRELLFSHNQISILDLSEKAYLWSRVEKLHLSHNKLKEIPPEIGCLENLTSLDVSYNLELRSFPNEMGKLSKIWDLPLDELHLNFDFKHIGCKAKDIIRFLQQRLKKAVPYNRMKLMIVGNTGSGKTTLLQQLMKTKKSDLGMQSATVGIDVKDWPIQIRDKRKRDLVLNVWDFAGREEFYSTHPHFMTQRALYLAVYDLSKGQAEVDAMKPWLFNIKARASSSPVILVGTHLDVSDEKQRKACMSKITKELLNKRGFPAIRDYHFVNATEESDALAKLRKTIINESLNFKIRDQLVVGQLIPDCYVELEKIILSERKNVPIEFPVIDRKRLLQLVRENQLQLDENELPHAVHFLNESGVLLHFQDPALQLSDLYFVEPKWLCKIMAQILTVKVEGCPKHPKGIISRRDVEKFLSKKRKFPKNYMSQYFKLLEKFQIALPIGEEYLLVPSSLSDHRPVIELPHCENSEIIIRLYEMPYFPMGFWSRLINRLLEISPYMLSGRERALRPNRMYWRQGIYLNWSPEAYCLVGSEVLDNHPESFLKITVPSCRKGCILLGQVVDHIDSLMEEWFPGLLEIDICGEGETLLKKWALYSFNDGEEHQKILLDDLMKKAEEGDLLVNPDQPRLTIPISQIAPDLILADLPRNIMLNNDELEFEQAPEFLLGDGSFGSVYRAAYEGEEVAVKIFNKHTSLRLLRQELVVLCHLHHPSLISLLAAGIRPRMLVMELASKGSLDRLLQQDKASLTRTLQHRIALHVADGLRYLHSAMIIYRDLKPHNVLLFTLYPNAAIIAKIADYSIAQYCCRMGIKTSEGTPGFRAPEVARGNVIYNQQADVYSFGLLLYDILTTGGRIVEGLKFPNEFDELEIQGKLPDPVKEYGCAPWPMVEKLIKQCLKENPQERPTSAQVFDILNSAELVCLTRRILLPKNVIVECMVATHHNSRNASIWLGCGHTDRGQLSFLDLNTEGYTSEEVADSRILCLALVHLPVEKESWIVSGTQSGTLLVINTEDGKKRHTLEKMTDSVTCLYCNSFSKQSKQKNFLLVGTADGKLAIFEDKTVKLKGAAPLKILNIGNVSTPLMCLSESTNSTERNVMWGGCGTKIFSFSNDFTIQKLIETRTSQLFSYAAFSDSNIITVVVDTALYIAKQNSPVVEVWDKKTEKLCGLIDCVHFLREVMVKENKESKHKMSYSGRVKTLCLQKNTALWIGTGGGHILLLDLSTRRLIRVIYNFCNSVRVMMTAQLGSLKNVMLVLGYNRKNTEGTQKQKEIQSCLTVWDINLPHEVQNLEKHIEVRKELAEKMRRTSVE
Recombinant wild type LRRK2 protein, sequence (Q5S007 whole entry): as the sequence (Q5S007 whole entry G2019S) above, with S2019G counted along it

| Structure (SMILES) | IC50 [1] [nM] | IC50 [2] [nM] |
| --- | --- | --- |
| Cc1c(C#N)cnc(C(=O)Nc2ccc3[nH]nc(C4CC4C(F)(F)F)c3c2)c1C (stereo not shown) [Example 265, 5-Cyano-3,4-dimethyl-N-(3-(2-(trifluoromethyl)cyclopropyl)-1H-indazol-5-yl)picolinamide] | 100 to 1000 | 1000 to 10000 |
| Cc1c(C#N)cnc(C(=O)Nc2ccc3[nH]nc(C(F)F)c3c2)c1C [Example 292, 5-Cyano-N-(3-(difluoromethyl)-1H-indazol-5-yl)-3,4-dimethylpicolinamide] | 100 to 1000 | 1000 to 10000 |
| Cc1cc(C#N)cnc1C(=O)Nc1cc(F)c2[nH]nc(-c3ccoc3)c2c1 [Example 143, 5-Cyano-N-(7-fluoro-3-(furan-3-yl)-1H-indazol-5-yl)-3-methylpicolinamide] | < 100 | 100 to 1000 |
| Cc1c(C#N)cnc(C(=O)Nc2ccc3[nH]nc(-c4cnn(C(F)(F)F)c4)c3c2)c1C [Example 169, 5-Cyano-3,4-dimethyl-N-(3-(1-(trifluoromethyl)-1H-pyrazol-4-yl)-1H-indazol-5-yl)picolinamide] | < 100 | < 100 |
| N#Cc1ccnc(C(=O)Nc2ccc3[nH]nc(-c4ccncc4)c3c2)c1 [Example 23, 4-Cyano-N-(3-(pyridin-4-yl)-1H-indazol-5-yl)picolinamide] | < 100 | 100 to 1000 |
| Cc1cc(C#N)cnc1C(=O)Nc1ccc2[nH]nc(C3COC3)c2c1 [Example 256, 5-Cyano-3-methyl-N-(3-(oxetan-3-yl)-1H-indazol-5-yl)picolinamide] | 1000 to 10000 | 1000 to 10000 |
| COc1c(C#N)cccc1C(=O)Nc1ccc2[nH]nc(-c3ccoc3)c2c1 [Example 72, 3-Cyano-N-(3-(furan-3-yl)-1H-indazol-5-yl)-2-methoxybenzamide] | < 100 | < 100 |
| CCc1c(C#N)ccc(F)c1C(=O)Nc1ccc2[nH]nc(-c3cnco3)c2c1 [Example 231, 3-Cyano-2-ethyl-6-fluoro-N-(3-(oxazol-5-yl)-1H-indazol-5-yl)benzamide] | < 100 | < 100 |
| COc1c(C#N)ccnc1C(=O)Nc1ccc2[nH]nc(-c3cnoc3)c2c1 [Example 228, 4-Cyano-N-(3-(isoxazol-4-yl)-1H-indazol-5-yl)-3-methoxypicolinamide] | < 100 | 100 to 1000 |
| C#Cc1cc(C#N)cnc1C(=O)Nc1ccc2[nH]nc(-c3ccoc3)c2c1 [Example 150] | 100 to 1000 | 100 to 1000 |
| Cc1c(C#N)cnc(C(=O)Nc2ccc3[nH]nc([C@@H]4CC4c4ccccc4)c3c2)c1C (stereo partly drawn) [Example 252, 5-Cyano-3,4-dimethyl-N-(3-((1R)-2-phenylcyclopropyl)-1H-indazol-5-yl)picolinamide] | < 100 | 100 to 1000 |
| N#Cc1cnc(C(=O)Nc2ccc3[nH]nc(-c4ccoc4)c3c2)c(Br)c1 [Example 138, 3-Bromo-5-cyano-N-(3-(furan-3-yl)-1H-indazol-5-yl)picolinamide] | < 100 | < 100 |
| N#Cc1ccc(O)c(C(=O)Nc2ccc3[nH]nc(-c4ccoc4)c3c2)c1 [Example 125, 5-Cyano-N-(3-(furan-3-yl)-1H-indazol-5-yl)-2-hydroxybenzamide] | 100 to 1000 | 100 to 1000 |
| Cc1cc(C#N)c(C(F)(F)F)nc1C(=O)Nc1ccc2[nH]nc(-c3cnco3)c2c1 [Example 288, 5-Cyano-3-methyl-N-(3-(oxazol-5-yl)-1H-indazol-5-yl)-6-(trifluoromethyl)picolinamide] | < 100 | < 100 |
| N#Cc1cnc(C(=O)Nc2ccc3[nH]nc(-c4ccoc4)c3c2)cc1O [Example 39, 5-Cyano-N-(3-(furan-3-yl)-1H-indazol-5-yl)-4-hydroxypicolinamide] | 1000 to 10000 | 1000 to 10000 |
| Cc1c(C(=O)Nc2ccc3[nH]nc(-c4ccoc4)c3c2)nn(C)c1C#N [Example 93, 5-Cyano-N-(3-(furan-3-yl)-1H-indazol-5-yl)-1,4-dimethyl-1H-pyrazole-3-carboxamide] | 100 to 1000 | 100 to 1000 |
| Cc1c(C(=O)Nc2ccc3[nH]nc(C#N)c3c2)nc(Cl)c(C#N)c1C [Example 290, 6-Chloro-5-cyano-N-(3-cyano-1H-indazol-5-yl)-3,4-dimethylpicolinamide] | < 100 | < 100 |
| Cc1c(C#N)cnc(C(=O)Nc2ccc3[nH]nc(-c4cnc(C(C)C)o4)c3c2)c1C [Example 181, 5-Cyano-N-(3-(2-isopropyloxazol-5-yl)-1H-indazol-5-yl)-3,4-dimethylpicolinamide] | < 100 | < 100 |
| Cc1c(C#N)cnc(C(=O)Nc2ccc3[nH]nc(-c4cn(C)nn4)c3c2)c1C [Example 240, 5-Cyano-3,4-dimethyl-N-(3-(1-methyl-1H-1,2,3-triazol-4-yl)-1H-indazol-5-yl)picolinamide] | < 100 | 100 to 1000 |
| C=Cc1cc(C#N)cnc1C(=O)Nc1ccc2[nH]nc(-c3ccoc3)c2c1 [Example 84, 5-Cyano-N-(3-(furan-3-yl)-1H-indazol-5-yl)-3-vinylpicolinamide] | < 100 | 100 to 1000 |
| CCc1c(C#N)ccnc1C(=O)Nc1ccc2[nH]nc(-c3ccoc3)c2c1 [Example 149, 4-Cyano-3-ethyl-N-(3-(furan-3-yl)-1H-indazol-5-yl)picolinamide] | < 100 | 100 to 1000 |
| Cc1cc(C#N)cnc1C(=O)Nc1ccc2[nH]nc(-c3cnsc3)c2c1 [Example 160, 5-Cyano-N-(3-(isothiazol-4-yl)-1H-indazol-5-yl)-3-methylpicolinamide] | < 100 | < 100 |
| Cc1cc(C#N)cnc1C(=O)Nc1ccc2[nH]nc(CCCN3CCCCC3)c2c1 [Example 323, 5-cyano-3-methyl-N-(3-(3-(piperidin-1-yl)propyl)-1H-indazol-5-yl)picolinamide] | > 10000 | > 10000 |
| COc1cc(C#N)cc(C)c1C(=O)Nc1ccc2[nH]nc(-c3cnco3)c2c1 [Example 208, 4-Cyano-2-methoxy-6-methyl-N-(3-(oxazol-5-yl)-1H-indazol-5-yl)benzamide] | < 100 | < 100 |
| COc1cc(C#N)cnc1C(=O)Nc1ccc2[nH]nc(-c3ccoc3)c2c1 [Example 69, 5-Cyano-N-(3-(furan-3-yl)-1H-indazol-5-yl)-3-methoxypicolinamide] | < 100 | 100 to 1000 |
| Cc1c(C#N)cnc(C(=O)Nc2ccc3[nH]nc(C=C4CCNCC4)c3c2)c1C [Example 260, 5-Cyano-3,4-dimethyl-N-(3-(piperidin-4-ylidenemethyl)-1H-indazol-5-yl)picolinamide] | 1000 to 10000 | > 10000 |
| Cc1nc(C(=O)Nc2ccc3[nH]nc(-c4ccoc4)c3c2)ccc1C#N [Example 13, 5-Cyano-N-(3-(furan-3-yl)-1H-indazol-5-yl)-6-methylpicolinamide] | < 100 | 100 to 1000 |
| Cn1c(C#N)cnc1C(=O)Nc1ccc2[nH]nc(-c3ccoc3)c2c1 [Example 96, 5-Cyano-N-(3-(furan-3-yl)-1H-indazol-5-yl)-1-methyl-1H-imidazole-2-carboxamide] | 100 to 1000 | 100 to 1000 |
| Cc1c(C(=O)Nc2ccc3[nH]nc(-c4ccoc4)c3c2)c(C#N)nn1C [Example 90, 3-Cyano-N-(3-(furan-3-yl)-1H-indazol-5-yl)-1,5-dimethyl-1H-pyrazole-4-carboxamide] | < 100 | < 100 |
